Data on three molecules can be found in PMC12596933 (Chembiochem, 2025).

Each structure is given as a SMILES string.

Assay [1] has as its target T1, FKP (bacterial L-fucokinase/GDP-fucose pyrophosphorylase) (Bacteroides fragilis, UniProt Q58T34).
T1 sequence (Q58T34 1-949): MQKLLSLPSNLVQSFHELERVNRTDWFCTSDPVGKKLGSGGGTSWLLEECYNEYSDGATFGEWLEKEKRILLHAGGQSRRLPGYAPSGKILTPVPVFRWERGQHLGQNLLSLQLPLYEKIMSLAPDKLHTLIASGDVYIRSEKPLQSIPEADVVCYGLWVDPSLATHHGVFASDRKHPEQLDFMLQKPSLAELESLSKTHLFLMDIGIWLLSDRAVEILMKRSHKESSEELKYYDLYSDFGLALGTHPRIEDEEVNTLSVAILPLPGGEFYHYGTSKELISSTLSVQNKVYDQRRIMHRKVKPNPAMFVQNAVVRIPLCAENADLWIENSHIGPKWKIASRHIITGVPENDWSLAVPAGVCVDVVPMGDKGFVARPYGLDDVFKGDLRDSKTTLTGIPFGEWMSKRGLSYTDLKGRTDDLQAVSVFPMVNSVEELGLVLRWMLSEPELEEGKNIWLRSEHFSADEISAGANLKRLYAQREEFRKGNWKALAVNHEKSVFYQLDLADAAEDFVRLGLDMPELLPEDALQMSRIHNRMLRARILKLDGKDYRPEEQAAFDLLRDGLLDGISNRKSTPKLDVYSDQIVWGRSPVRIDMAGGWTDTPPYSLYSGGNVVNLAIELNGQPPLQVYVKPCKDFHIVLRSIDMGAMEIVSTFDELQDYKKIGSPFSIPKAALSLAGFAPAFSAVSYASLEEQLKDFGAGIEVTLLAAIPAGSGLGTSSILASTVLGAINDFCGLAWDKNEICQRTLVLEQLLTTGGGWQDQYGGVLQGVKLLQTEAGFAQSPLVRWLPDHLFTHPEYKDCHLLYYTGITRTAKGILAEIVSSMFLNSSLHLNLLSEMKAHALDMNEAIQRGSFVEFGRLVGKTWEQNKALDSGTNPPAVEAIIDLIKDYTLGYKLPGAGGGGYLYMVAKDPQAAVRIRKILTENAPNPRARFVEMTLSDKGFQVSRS
As to the kind of experiment: Enzymatic conversion by FKP into the sugar nucleotide. It counts as biochemical.

The next assay deals with FUT6. The following applies: read-out: Km as donor for FUT6; cited from earlier work.
Another assay concerns FUT8. The following applies: read-out: Km as donor for FUT8; cited from earlier work.
For a further assay, the system named is HL-60 cells. Kind of assay: Cell surface fucosylation, flow cytometry with lectin AAL staining. It is filed as cell-based. The following applies: 4 to 500 μM, 3 days, normalized to DMSO as 100%. A general note: A flow cytometer gives signals particle by particle.

As to `[N-]=[N+]=NC[C@@H]1OC(O)[C@@H](F)[C@H](O)[C@@H]1O` (stereo partly shown) [6‐N3‐2‐F‐Fuc], the “conversion by FKP into the corresponding sugar nucleotide product” value in assay [1] was “unable to catalyze the conversion”. For orientation: Km means the concentration of substrate that gives half-maximal velocity. For `Nc1nc2c(ncn2C2OC(COP(=O)(O)OP(=O)(O)OC3OC(CNC(=O)Cc4ccc5ccccc5c4)C(O)C(O)C3O)C(O)C2O)c(=O)[nH]1` (stereo not shown) [6‐deoxy‐6‐N‐(2‐naphthylacetyl)‐GDP‐fucose], the Km in the assay on FUT6 was 0.94 µM; in the assay with FUT8 it was 175 µM. Consider `CC(=O)O[C@@H]1O[C@@H](C)[C@@H](OC(C)=O)[C@@H](OC(C)=O)[C@@H]1OC(C)=O` [Ac‐fucose], for which the “effect on cell surface fucosylation” value with HL-60 cells is “enhanced fucosylation”.
